Calls of active or inactive are those of the source. No cut-off for these calls is given here.
Key:
Pseudomonas aeruginosa [1] = experiment: Inhibition of quorum sensing system in Pseudomonas aeruginosa ATCC 27853 assessed as inhibition of swarming motility at 0.1 to 0.5 mM after 24 hrs relative to control
Pseudomonas aeruginosa [2] = experiment: Inhibition of quorum sensing system in Pseudomonas aeruginosa ATCC 27853 assessed as inhibition of swimming motility at 0.1 to 0.5 mM after 24 hrs relative to control
Pseudomonas aeruginosa [3] = experiment: Inhibition of quorum sensing system in Pseudomonas aeruginosa ATCC 27853 assessed as inhibition of […] pigmentation at 0.1 to 0.5 mM relative to control
Pseudomonas aeruginosa [4] = experiment: Inhibition of quorum sensing system in Pseudomonas aeruginosa ATCC 27853 assessed as inhibition of rhamnolipid production at 0.1 to 0.5 mM relative to control
Pseudomonas aeruginosa [5] = experiment: Inhibition of quorum sensing system in Pseudomonas aeruginosa ATCC 27853 assessed as inhibition of biofilm formation at > 1.8 mM after 24 hrs by crystal violet staining method relative to control
Pseudomonas aeruginosa [6] = experiment: Antibacterial activity against Pseudomonas aeruginosa ATCC 27853 assessed as growth inhibition at 100 ug/mL measured every 2 hrs up to 20 hrs; format: functional, organism-based
Pseudomonas aeruginosa [7] = experiment: Ratio of compound activity to salicylic acid activity for inhibition of quorum sensing system-mediated biofilm formation in Pseudomonas aeruginosa ATCC 27853
Pseudomonas aeruginosa [8] = experiment: Inhibition of quorum sensing system in Pseudomonas aeruginosa ATCC 27853 assessed as inhibition of LasA at 0.1 to 0.5 mM relative to control
Pseudomonas aeruginosa [9] = experiment: Inhibition of quorum sensing system in Pseudomonas aeruginosa ATCC 27853 assessed as inhibition of twitching motility at 0.1 to 0.5 mM after 24 hrs relative to control
Pseudomonas aeruginosa [10] = conditions: ATCC 27853, 4 mM
Description: Inhibition of quorum sensing system in Pseudomonas aeruginosa ATCC 27853 assessed as inhibition of biofilm formation at 4 mM after 24 hrs by crystal violet staining method relative to control

SMILES	inhibition (Pseudomonas aeruginosa [1]) [%]	inhibition (Pseudomonas aeruginosa [2]) [%]	inhibition (Pseudomonas aeruginosa [3]) [%]	inhibition (Pseudomonas aeruginosa [4]) [%]	inhibition (Pseudomonas aeruginosa [5]) [%]	growth inhibition (GI) (Pseudomonas aeruginosa [6])	Ratio (Pseudomonas aeruginosa [7])	inhibition (Pseudomonas aeruginosa [8]) [%]	inhibition (Pseudomonas aeruginosa [9]) [%]	inhibition (Pseudomonas aeruginosa [10]) [%]
CCCCCCCCCCCCCC[C@@H]1CCCN1	95	33	37	42	83	inactive	2	34	15	–
O=C(O)c1ccccc1O	60	40	–	–	–	–	–	–	35	48
